The source of these data is patent publication US20220401452A1, “USE OF INHIBITORS OF ENHANCER OF ZESTE HOMOLOG 2” (The Board Of Regents of The University of Texas System, priority 2019, published 2022).

In test [1] the test system is 668 cancer cells lines of various types. The conditions noted are these: CTRP data, cited from earlier work.
The subject of test [2] is H3K27 methylation in prostate cell lines. Kind of test: Western blot of H3K27 methylation levels in prostate cell lines. Type of test: cell-based, human. The conditions noted are these: all tested prostate cell lines; 1 or 5 μM. From the text: In view of the canonical function of EZH2 in catalyzing H3K27me3, the mechanisms of how repressive chromatin mark contribute to the growth and gene inhibitory effects of EZH2i were investigated. […] Discrepancies between EZH2i-induced H3K27me3 reduction and cell insensitivity to EZH2i were also reported in lymphoma cells.

For test [3], the system named is C4-2B, LAPC4-CR and LNCaP-AI cells. Kind of test: RT-qPCR of selected genes in C4-2B, LAPC4-CR and LNCaP-AI. The conditions noted are these: 5 μM, 72 hrs. In kind it is cell-based, human. From the text: The expression of these genes was examined in three other EZH2i-sensitive CRPC cell lines: C4-2B, LAPC4-CR and LNCaP-AI. FIG. 2D is a heat map of quantitative real-time RT-qPCR results showing changes in mRNA levels of selected gene in three prostate cancer cell lines (C4-2B, LAPC4-CR, and LNCaP-AI). […] EZH2-activated genes and EZH2-repressed genes are grouped together. […] Numbers, triplicates of samples from control or treatment group.
RNA isolation and RT-qPCR. RNA was extracted and purified using the TRIzol Reagent combined with RNeasy Mini Kit (Qiagen) according to manufacturer's protocols. 2 μg of total RNAs were then used for cDNA synthesis using High Capacity cDNA Reverse Transcription Kit (Applied Biosystems). Real-time quantitative RT-PCR was performed, and gene expression was calculated as described previously, using the formula 2-ΔΔCt relative to the level of GAPDH as the internal control.

For test [4], the system named is DU145 cells. Kind of test: Growth curve of DU145 cells. In kind it is cell-based, human. As to conditions: FIG. 9A. How it is done:
Genetic inhibition of EZH2 suppressed growth of CRPC cells better than that of androgen-dependent prostate cancer cells. As EZH2 is a druggable enzyme with available small-molecule inhibitors, the efficacy of EZH2-targeting drugs was assessed in prostate cancer cells. […] Cells were grouped based on the basic characteristics. ADPC is androgen-dependent prostate cancer, and CRPC is castration-resistant prostate cancer. Concentrations as low as 500 nM of the EZH2 inhibitors (EZH2i) greatly retarded the growth of castration-resistant abl cells. […] Relatively higher doses of EZH2i were required to suppress the androgen-dependent LNCaP cells. […] This was consistent with a previous report that neither PC3 nor DU145 requires EZH2 for continued growth.

For test [5], the system named is abl cells. Kind of test: Gene expression by RNA-Seq in abl cells. Type of test: cell-based, human. The conditions noted are these: 5 μM, 72 hrs. The protocol: (§1) Blue bars represent the percentage of genes in each specific functional category. The red line represents values of the false discovery rate (FDR) for the particular GO term. […] Two analyses were carried out to rule out the possible off-targeted effect of EZH2i on gene regulation. First, transcriptional profiles were compared in abl being treated with either EZH2i or in which EZH2 had been silenced using RNA interference (RNAi). Pharmacologic and genetic inhibition of EZH2 shared highly similar gene expression patterns.
(§2) Analysis of EZH2 Inhibitor Mediated Gene Expression by RNA-Seq. […] RNA-seq library was prepared using Illumina True-seq RNA sample preparation kit and sequenced to 50 bp using Illumina Hi-seq platform. RNA-seq data was mapped to human genome (hg19) using TopHat version 2.0.6. […] Differentially expressed genes were first filtered using LFC>0.5 or <−0.5, and then top 200 genes were selected through ranking by their p-values. The authentic target genes of EZH2 in abl cells were defined as those showing similar expression changes upon either EZH2 silencing or inhibitor treatment.

Test [6] has as its system DU145 cells. Kind of test: Gene expression by RNA-Seq in DU145 cells. In kind it is cell-based, human. As to conditions: 5 μM, 72 hrs. The protocol:
as §1, §2

Test [7] deals with DU145 cells. Kind of test: Alkaline comet assay after ionizing radiation in DU145 cells. Type of test: cell-based, human. The conditions noted are these: 5 μM pretreatment 7 days, recovery 4 hrs. How it is done: (§3) EZH2i can be administered to sensitize CRPC cells to DNA damage repair (DDR) agents. To validate this, abl, LNCaP and DU145 cells were exposed to increasing doses of ionizing radiation (IR). […] FIG. 6A is a graphical representation of the alkaline comet assays in abl cells. Prostate cancer cells were pretreated with vehicle (DMSO) or 5 μM GSK126 (GSK) for 7 days, and then exposed to increasing dosages of ionizing radiation (IR) followed by recovery for 4 hrs. FIG. 6B is a set of photographic images of each IR dosage corresponding to the dosages in FIG. 6A. FIG. 6C is a graphical representation of the alkaline comet assays in LNCaP cells. […]
(§4) FIG. 15A is a graphical representation of the alkaline comet assay results in abl cells after pretreatment with vehicle (DMSO) or 5 μM GSK126 (GSK) for 7 days and then being exposed to 5 gray (Gy) ionizing radiation (IR) followed by recovery at indicated time points (Quantification of the results using “Olive Tail Moment” parameter). […] FIG. 15C is a graphical representation of the alkaline comet assay results in LNCaP cells after pretreatment with vehicle (DMSO) or 5 μM GSK126 (GSK) for 7 days and then being exposed to 5 gray (Gy) ionizing radiation (IR) followed by recovery at indicated time points (Quantification of the results using “Olive Tail Moment” parameter). […]

In another test the test system is CWR22Rv1 xenografts. Kind of test: Test of EZH2 inhibitors in CWR22Rv1 xenograft mouse model. Type of test: in vivo, castrated nude mice. The protocol:
FIG. 1F is a growth curve of xenograft tumors in castrated nude mice injected with CWR22Rv1 cells receiving vehicle (Veh) or GSK126, at the indicated doses.
Test of EZH2 Inhibitors in Xenograft Mouse Model. Male nude mice (Taconic) were castrated after 3 days of accommodation. CWR22Rv1 xenografts were established in the flanks of mice by injecting ˜2 million cells in 50% Matrigel (BD Biosciences). […] Tumors were measured 3 times every week and harvested after 3 weeks. Frozen samples were subjected to RT-qPCR and immunoblotting to study the expression of selected genes. All animal protocols were approved by the Beth Israel Deaconess Institutional Animal Care and Use Committee, and the experiments were performed in accordance with institutional and national guidelines.

In test [8] the test system is abl cells. Kind of test: Alkaline comet assay after ionizing radiation in abl cells. The conditions noted are these: 5 μM pretreatment 7 days. In kind it is cell-based, human. The protocol:
as §3, §4

The next test has as its system LNCaP cells. Kind of test: Alkaline comet assay after ionizing radiation in LNCaP cells. Type of test: cell-based, human. The conditions noted are these: 5 μM pretreatment 7 days, recovery 4 hrs. The protocol: as §3, §4

For the molecule `C[C@H]1CN([C@@H](C)CO)S(=O)(=O)c2ccc(C#CCC3CCCC3)cc2O[C@@H]1CN(C)Cc1ccc(C(=O)O)cc1` [BRD], the “potency by EZH2 mutation status” value in test [1] (GOF vs LOF p=0.2705, GOF vs None p=1.000) is listed as “does not show higher potency”. In [1] (top 25% highest vs bottom 25% lowest expression), the “sensitivity of cell lines by expression of DNA repair genes” value is reported as “much more susceptible”.
Take `CCN(c1cc(-c2ccc(CN3CCOCC3)cc2)cc(C(=O)NCc2c(C)cc(C)[nH]c2=O)c1C)C1CCOCC1` [EPZ-6438]: in test [2], the “total H3K27 di- and tri-methylation levels” value was “reduced total H3K27 di- and tri-methylation levels in a dose-dependent manner”. The “expression of EZH2-repressed genes” value in test [3] was “upregulated EZH2-repressed genes to some extent”. Further, the “inhibitory effect on growth of AR-null DU145” value in the test on DU145 cells [4] is “minimal”. In the test with abl cells [5], the “gene expression pattern in abl cells” value was “a large number of genes were significantly downregulated”. Also, the “gene expression pattern in EZH2i-insensitive DU145 cells” value in the test on DU145 cells [6] was “largely de-repressed genes”.
As to `CC[C@H](C)n1cc(C)c2c(C(=O)NCc3c(C)cc(C)[nH]c3=O)cc(-c3ccc(N4CCNCC4)nc3)cc21` [GSK126], the “difference in sensitivity to ionizing radiation (comet assay)” value in the test on DU145 cells [7] was “non-existent”; with LNCaP cells, “very minor”. Further, the “total H3K27 di- and tri-methylation levels” value in test [2] was “reduced total H3K27 di- and tri-methylation levels in a dose-dependent manner”. The “expression of EZH2-repressed genes” value in [3] was “upregulated EZH2-repressed genes to some extent”. In addition, the xenograft tumor growth entry in the test with CWR22Rv1 xenografts (CWR22Rv1 subcutaneous xenografts, castrated mice, daily injection, 21 days of treatment) is listed as “significantly retarded tumor growth”. For the same molecule, in the test on CWR22Rv1 xenografts (CWR22Rv1 xenografts), the “mRNA and protein levels of EZH2-activated genes in xenograft tumor tissues” value was “consistent decrease”. In addition, in the test with DU145 cells [4], the “inhibitory effect on growth of AR-null DU145” value is “minimal”. In addition, in the test with abl cells [5], the “gene expression pattern in abl cells” value was “a large number of genes were significantly downregulated”. Also, in the test with DU145 cells [6], the “gene expression pattern in EZH2i-insensitive DU145 cells” value is on record as “largely de-repressed genes”. In addition, the “DNA damage repair after 5 Gy IR (Olive Tail Moment over recovery time)” value in the test on abl cells [8] is listed as “drastically delayed DNA damage repair”. Moreover, the “sensitivity to increasing doses of ionizing radiation (comet assay)” value with abl cells [8] (recovery 4 hrs) is given as “became much more sensitive to IR”.
